The text below walks through data of article PMC10981727, “Design, synthesis and bioactivity study on oxygen-heterocyclic-based pyran analogues as effective P-glycoprotein-mediated multidrug resistance in MCF-7/ADR cell” (Scientific Reports, 2024).

One data set relates to human fetal lung (HFL-1). Put plainly: MTT viability assay, normal HFL-1. It counts as cell-based. As to conditions: HFL1, normal cell line, 24 h, mean ± standard error. As for the experimental part:
(§1) Using concentrations ranging from 0 to 100 μM against PC-3, SKOV-3, and HeLa cancerogenic cell lines, target compounds 4a–l were assessed for their anticancer activities[53] and compared with the commercially available Vinblastine and Doxorubicin. […] The compounds with the greatest cytotoxic activity against the cancerous cell lines PC-3, SKOV-3, and HeLa were 4a–c, 4g, and 4h. […] We selected the cytotoxic active compounds 4a–c, 4g, and 4h to be evaluated against MCF-7/ADR cancerogenic and HFL-1 and WI-38 non-cancerogenic cell lines (Figs. 7, 8 and Table 1).
(§2) The tumor cell lines (PC-3, SKOV-3, and HeLa), resistant cell strains (MCF-7/ADR) and the normal cell lines, (HFL-1, WI-38) were obtained from the American Type Culture Collection (ATCC, Rockville, MD, USA).
(§3) The tumor cell lines were suspended in medium at concentration 5 × 10^4 cells well^−1 in Corning® 96-well tissue culture plates and then incubated for 24 h. The tested compounds with concentrations ranging from 0 to 100 μM were then added into 96-well plates (six replicates) to achieve six different concentrations for each compound. Six vehicle controls with media or 0.5% DMSO were run for each 96 well plate as a control. After incubating for 24 h, the numbers of viable cells were determined by the MTT test[53]. Briefly, the media was removed from the 96 well plates and replaced with 100 μl of fresh culture RPMI 1640 medium without phenol red then 10 μl of the 12 mM MTT stock solution (5 mg of MTT in 1 ml of PBS) to each well including the untreated controls. The 96-well plates were then incubated at 37 °C and 5% CO2 for 4 h. An 85-μl aliquot of the media was removed from the wells, and 50 μl of DMSO was added to each well and mixed thoroughly with the pipette and incubated at 37 °C for 10 min. Then, the optical density was measured at 590 nm with the microplate reader (Sunrise, TECAN, Inc, USA) to determine the number of viable cells and the percentage of viability was calculated as […] where ODt is the mean optical density of wells treated with the tested sample and ODc is the mean optical density of untreated cells. The relation between surviving cells and drug concentration is plotted to get the survival curve of each tumor cell line after treatment with the specified compound. The 50% inhibitory concentration (IC50), the concentration required to cause toxic effects in 50% of intact cells, was estimated from graphic plots of the dose response curve for each concentration.

For data set [1], the system named is MCF-7/ADR cells. Kind of data set: Cell cycle assay (propidium iodide flow cytometry). It counts as cell-based. To be noted: treated at IC50 value for 24 h; for percentage of MCF-7/ADR cells in S phase (%DIP S): untreated control 29.61%. On the procedure:
The most powerful recently synthesized substances 4a–c on regulating cell cycle progression of MCF-7/ADR cells was analyzed by the flow cytometry, exploiting the FACS Calibers (Becton Dickinson). […] Cell cycle progression results of compounds 4a and 4b show cell cycle arrest at S phase with 41.17% and 34.62% respectively compared to 29.61% of the negative untreated control. […] Cell cycle arrest and distribution were done using Propidium Iodide Flow Cytometry Kit (ab139418, Abcam) as previously described. […] The DNA content in each cell nucleus was determined by a FACS Calibur flow cytometer (BD Biosciences, Franklin Lakes, NJ, USA).
On the technique in general: A flow cytometer gives signals particle by particle.

A further data set relates to SKOV-3. Kind of data set: MTT viability assay, SKOV-3. The class given is cell-based. To be noted: for IC50: MTT, 24 h incubation, mean ± standard error; for times more potency than Doxorubicin, SKOV-3 / times more potency than Vinblastine, SKOV-3: ratio of IC50 values. On the procedure: as §1, §2, §3
Background: Tetrazolium assays rely on reduction of a dye to a coloured formazan, in cell work by metabolically active cells.

In the next data set the test system is HeLa. Kind of data set: MTT viability assay, HeLa. As to conditions: 24 h incubation, mean ± standard error. It counts as cell-based. As for the experimental part: as §1, §2, §3
In data set [2] the test system is human diploid fibroblasts (WI-38). Put plainly: MTT viability assay, normal WI-38. The class given is cell-based. To be noted: normal cell line, 24 h, mean ± standard error. As for the experimental part: as §1, §2, §3
The target in data set [3] is T1, P-gp (Homo sapiens, UniProt P08183). Put plainly: in vitro. As to conditions: MCF-7/ADR cells (cell lysate).
T1 sequence (P08183 whole entry): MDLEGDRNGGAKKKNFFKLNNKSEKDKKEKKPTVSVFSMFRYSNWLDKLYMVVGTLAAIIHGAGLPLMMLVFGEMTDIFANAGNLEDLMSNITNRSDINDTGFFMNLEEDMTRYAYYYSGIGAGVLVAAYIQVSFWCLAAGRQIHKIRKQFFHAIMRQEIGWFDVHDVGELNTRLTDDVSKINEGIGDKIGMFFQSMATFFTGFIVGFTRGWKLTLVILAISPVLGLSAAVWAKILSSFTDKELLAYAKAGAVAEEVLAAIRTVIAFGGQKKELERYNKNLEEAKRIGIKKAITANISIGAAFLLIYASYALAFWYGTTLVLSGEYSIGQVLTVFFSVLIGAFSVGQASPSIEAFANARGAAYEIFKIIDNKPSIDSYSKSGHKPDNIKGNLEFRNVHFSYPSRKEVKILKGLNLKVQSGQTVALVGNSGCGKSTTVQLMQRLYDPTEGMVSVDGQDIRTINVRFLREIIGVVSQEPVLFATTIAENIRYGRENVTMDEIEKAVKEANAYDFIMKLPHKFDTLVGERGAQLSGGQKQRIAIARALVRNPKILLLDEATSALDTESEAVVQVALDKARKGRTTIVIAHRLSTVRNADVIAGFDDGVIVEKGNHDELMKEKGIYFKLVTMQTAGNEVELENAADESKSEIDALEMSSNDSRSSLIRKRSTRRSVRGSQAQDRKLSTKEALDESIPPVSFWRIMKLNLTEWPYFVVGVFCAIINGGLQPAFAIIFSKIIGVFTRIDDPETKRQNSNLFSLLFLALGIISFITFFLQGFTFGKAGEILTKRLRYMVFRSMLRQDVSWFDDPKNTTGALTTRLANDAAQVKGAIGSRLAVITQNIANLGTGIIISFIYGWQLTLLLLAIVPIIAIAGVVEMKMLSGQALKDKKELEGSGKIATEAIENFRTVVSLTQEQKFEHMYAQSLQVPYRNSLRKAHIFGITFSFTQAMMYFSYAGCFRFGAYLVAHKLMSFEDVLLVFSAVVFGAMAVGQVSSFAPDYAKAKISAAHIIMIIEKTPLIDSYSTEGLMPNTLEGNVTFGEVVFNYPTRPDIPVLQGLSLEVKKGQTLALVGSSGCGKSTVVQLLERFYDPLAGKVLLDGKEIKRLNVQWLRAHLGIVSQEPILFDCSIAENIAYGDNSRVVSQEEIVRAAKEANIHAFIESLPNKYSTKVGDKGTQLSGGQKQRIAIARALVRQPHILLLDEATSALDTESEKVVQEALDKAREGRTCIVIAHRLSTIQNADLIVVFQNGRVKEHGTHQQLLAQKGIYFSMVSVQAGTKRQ
Procedure: (§4) The content of P-gp in the MCF-7/ADR cell lysates after incubation with varying conc. […] Absorption was recorded at 450 nm with a Spectramax Gemini fluorescence microplate reader (Molecular Devices, Sunnyvale, CA, USA)[78].
A further data set deals with MCF-7/ADR. Kind of data set: MTT viability assay, resistant MCF-7/ADR. It counts as cell-based. To be noted: MTT, 24 h exposure, mean ± standard error. On the procedure: as §1, §2, §3
Data set [4] concerns MCF-7/ADR cells. Put plainly: Annexin V-FITC/PI apoptosis assay. It counts as cell-based. To be noted: treated at IC50 value for 24 h; for necrosis (upper left quadrant, PI / Annexin V-FITC plot): control 1.56%; for total apoptosis percentage: equals sum of the three quadrants. On the procedure:
P-gp inhibits apoptosis by preventing the release of cytochrome c which is mediated by the intrinsic mitochondrial pathway. Also, blocking cell cycle progression, inducing apoptosis or the combined effect of both are one of the indicated mechanisms for the cytotoxic effect of the chemotherapeutic drugs. Therefore, further assessment of the pivotal relationship between the newly synthesized MCF-7/ADR anticancer compounds and apoptosis was measured by the means of the Annexin V/PI double staining flow cytometric assay.
Apoptosis assay was performed with an Annexin V-FITC/PI double staining apoptosis detection kit (K101, Biovison) using a flow cytometer. […] Cells were harvested by the trypsinization, washed twice with 4 °C PBS, and re-suspended in the binding buffer. Subsequently, the Annexin V-FITC and Propidium iodide (PI) solutions were added to stain the cells before the analysis by the flow cytometry, where a minimum of 10,000 cells per sample were acquired. The Annexin V-FITC binding (FL1) and PI (FL2) were analyzed, using the Cell Quest Pro software (BD Biosciences).

In another data set the test system is PC-3. Put plainly: MTT viability assay, PC-3. The class given is cell-based. To be noted: MTT, 24 h incubation, mean ± standard error. As for the experimental part: as §1, §2, §3
In data set [5] the target is T1, P-gp. Kind of data set: cell-based.
Procedure: Absorbance at 450 nm of each well was measured using Spectramax Gemini fluorescence microplate reader (Molecular Devices, Sunnyvale, CA, USA). The total content of Rhodamine in each sample was determined by comparison with a Rhodamine standard curve.
Data set [6] deals with T1, P-gp.
Procedure: as §4

Read-outs that look alike come from different tables or passages of the source.

On to `N#CC1=C(N)Oc2ccc3ccc(O)cc3c2C1c1ccc(F)cc1` (centres unmarked) [4a, 3-Amino-1-(4-fluorophenyl)-9-hydroxy-1H-benzo[f]chromene-2-carbonitrile], for which the melting point (commonly the temperature, or range, at which the solid turns liquid) was 272 °C. The IC50 (commonly the midpoint of a concentration-inhibition curve) in the data set with human fetal lung (HFL-1) is 69.8 ± 0.3 µM. The “percentage of MCF-7/ADR cells in S phase (%DIP S)” value in the data set on MCF-7/ADR cells [1] is given as 41.17%. The same compound had an IC50 with SKOV-3 (Homo sapiens, SK-OV-3) of 0.6 ± 0.2 µM. In the data set on SKOV-3, the “times more potency than Doxorubicin, SKOV-3” value was found to be 1.8 times and the “times more potency than Vinblastine, SKOV-3” value is 5.3 times. In the data set with HeLa (Homo sapiens, HeLa), this compound yielded a half-maximal inhibitory concentration (IC50) of 1.5 ± 0.3 µM. The IC50 in data set [2] amounted to 83.7 ± 1.1 µM. Besides, on P-gp [3], the IC50 at 48 h is 34.7 µM. In the data set with MCF-7/ADR (Homo sapiens, NCI/ADR-RES), this compound had an IC50 of 9.5 ± 0.3 µM. For the same compound, in the data set on MCF-7/ADR cells [4], the “necrosis (upper left quadrant, PI / Annexin V-FITC plot)” value was 16.42% and the total apoptosis percentage is 31.98%. The compound also came in with a 50% inhibitory concentration (IC50) with PC-3 (Homo sapiens, PC-3) of 1.8 ± 0.3 µM. In addition, the IC50 on P-gp [5] came to 30.9 µM.

For `N#CC1=C(N)Oc2ccc3ccc(O)cc3c2C1c1ccccc1Cl` (centres unmarked) [4b, 3-Amino-1-(2-chlorophenyl)-9-hydroxy-1H-benzo[f]chromene-2-carbonitrile], the melting point fell in the range of 262 to 263 °C. The compound further had a half-maximal inhibitory concentration (IC50) in the data set on human fetal lung (HFL-1) of 72 ± 0.2 µM. For the same compound, the “percentage of MCF-7/ADR cells in S phase (%DIP S)” value in the data set on MCF-7/ADR cells [1] worked out at 34.62%. In the data set with SKOV-3 (Homo sapiens, SK-OV-3), this compound displayed an IC50 of 0.7 ± 0.2 µM. Besides, in the data set with SKOV-3, the “times more potency than Doxorubicin, SKOV-3” value is listed as 1.6 times and the “times more potency than Vinblastine, SKOV-3” value was 4.6 times. Further, in the data set on HeLa (Homo sapiens, HeLa), the IC50 was found to be 2.4 ± 0.2 µM. This compound had a 50% inhibitory concentration (IC50) in [2] of 61.1 ± 0.1 µM. On P-gp [3], this compound registered an IC50 at 48 h of 15.4 µM. In addition, the IC50 in the data set on MCF-7/ADR (Homo sapiens, NCI/ADR-RES) turned out to be 5 ± 0.1 µM. In the data set with MCF-7/ADR cells [4], this compound returned a total apoptosis percentage of 43.51%. Half-maximal inhibition in the data set with PC-3 (Homo sapiens, PC-3) (IC50) was put at 3.3 ± 0.5 µM. For the same compound, 13.3 µM corresponded to half-maximal inhibition at P-gp [5] (IC50).

`N#CC1=C(N)Oc2ccc3ccc(O)cc3c2C1c1cccc(Cl)c1` (centres unmarked) [4c, 3-Amino-1-(3-chlorophenyl)-9-hydroxy-1H-benzo[f]chromene-2-carbonitrile] displayed a melting point of 260 to 261 °C. In addition, in the data set on human fetal lung (HFL-1), 56.5 ± 1.2 µM corresponded to half-maximal inhibition (IC50). For the same compound, the “percentage of MCF-7/ADR cells in G2/M phase (%DIP G2/M)” value in the data set with MCF-7/ADR cells [1] (untreated control 15.01%) is on record as 29.54%. The compound also came in with an IC50 with SKOV-3 (Homo sapiens, SK-OV-3) of 0.8 ± 0.1 µM. In the data set on SKOV-3, the “times more potency than Doxorubicin, SKOV-3” value was 1.4 times and the “times more potency than Vinblastine, SKOV-3” value is 4 times. In the data set with HeLa (Homo sapiens, HeLa), 2.1 ± 0.2 µM corresponded to half-maximal inhibition (IC50). In addition, the IC50 in [2] turned out to be 58.2 ± 1.1 µM. This compound showed an IC50 at 48 h on P-gp [3] of 27.3 µM. Moreover, half-maximal inhibition in the data set with MCF-7/ADR (Homo sapiens, NCI/ADR-RES) (IC50) required 10.7 ± 0.3 µM. Moreover, the total apoptosis percentage with MCF-7/ADR cells [4] turned out to be 36.17%. The IC50 in the data set with PC-3 (Homo sapiens, PC-3) is 2.3 ± 2.2 µM. This compound also returned an IC50 against P-gp [5] of 21.5 µM.

As to Doxorubicin [reference compound], the IC50 against P-gp [6] came to 50.9 µM; in the data set on SKOV-3, 1.1 ± 0.2 µM; in the data set on HeLa it was 1.5 ± 0.3 µM; in the data set on MCF-7/ADR, 18.6 ± 0.2 µM; in the data set with PC-3 it was 1.3 ± 0.3 µM. In addition, the “necrosis (upper left quadrant, PI / Annexin V-FITC plot)” value with MCF-7/ADR cells [4] was found to be 3.33%. The compound also had a total apoptosis percentage in the data set with MCF-7/ADR cells [4] of 29.59%.
